Reference: patent publication US20210353784A1, “DETECTING AND TREATING CANCERS USING CELL PENETRANT MTP53-OLIGOMERIZATION-DOMAIN PEPTIDE” (priority 2020, published 2021)
Ends that are not written are not given here.

Tested on: MDA-MB-468 and MCF7 cells
Test: Live cell imaging staining with Cy5 conjugated first and second-generation TAT-mtp53ODP
Format: cell-based, Human
Conditions: 500 nM, 4 h incubation
Procedure: FIG. 7 quantifies the results of live cell imaging staining of MDA-MB-468 and MCF7 cells with 4 h incubation of 500 nM Cy5 conjugated first (TAT-mtp53ODP-35mer, SEQ ID NO: 3) and second-generation (TAT-mtp53ODP-27mer (SEQ ID NO: 7) and TAT-mtp53ODP-37mer (SEQ ID NO: 8)) after 4 h incubation. Cells were imaged by confocal microscopy. Quantification of Cy5 conjugated TAT-mtp53ODP uptake in MDA-MB-468 cells and MCF7 cells was conducted by Nikon Element analysis. […] Three independent experiments with biological replicate were performed. Statistical analyses were conducted in Graphpad Prism 9. Results are expressed as mean+SEM. Statistical significance for hypothesis testing was performed by Student's t-test. The following format was used to assign significance based on P-value: *p-value ≤0.05, ** p-value […] p-value ≤0.001.
Live cell imaging staining was also performed on second-generation peptides based on Cy5-conjugated SEQ ID NO: 7 and SEQ ID NO: 8. FIG. 7 depicts the results of live cell imaging staining of MDA-MB-468 and MCF7 cells with 4 h incubation of 500 nM Cy5 conjugated first (TAT-mtp53ODP-35mer, SEQ ID NO: 3) and second-generation (TAT-mtp53ODP-27mer (SEQ ID NO: 7) and Cy5-conjugated TAT-mtp53ODP-37mer (SEQ ID NO: 8)) after 4 h incubation. Cells were imaged by confocal microscopy. A scrambled peptide was included as a control. […]

**Q.** With “GRKKRRQRRGEYFTLQIRGRERFEMFR (also: Cy5 conjugate) [TAT-mtp53ODP-27mer, Cy5 conjugated second-generation TAT-mtp53ODP peptide]” as the sequence, how does the “activity relative to TAT-mtp53ODP-35mer (SEQ ID NO: 3)” value read?
**A.** The value was “reduced activity”.

**Q.** “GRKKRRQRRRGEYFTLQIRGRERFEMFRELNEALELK (also: Cy5 conjugate) [TAT-mtp53ODP-37mer, Cy5 conjugated second-generation TAT-mtp53ODP peptide]” was tested. Which “activity relative to TAT-mtp53ODP-35mer (SEQ ID NO: 3)” value did it give?
**A.** The value was “enhanced activity”.
